Columns and labels:
[1] = tested on: Human immunodeficiency virus 1; test: Antiviral activity against HIV1 3B infected in human MT4 cells incubated assessed as reduction in virus-induced cytopathic effect for 5 days by MTT assay; assay type: functional, organism-based; conditions: Human immunodeficiency virus 1, 3B, MT4, 120 h
MT4 = test: Cytotoxicity against human MT4 cells assessed as reduction in cell viability incubated for 5 days by MTT assay; assay type: functional; conditions: MT4, 120 h
[2] = Selectivity index, ratio of CC50 for human MT4 cells to EC50 for antiviral activity against HIV1 3B infected in human MT4 cells incubated for 5 days by MTT assay; assay type: toxicity, cell-based; conditions: MT4 cells (uninfected for CC50; HIV-1 3B infected for EC50)
[3] = tested on: Human immunodeficiency virus 1; test: Antiviral activity against HIV1 harboring reverse transcriptase L100I mutant infected in human MT4 cells assessed as reduction in virus-induced cytopathic effect incubated for 5 days by MTT assay; assay type: functional, organism-based; conditions: Human immunodeficiency virus 1, MT4, 120 h
[4] = tested on: Human immunodeficiency virus 1; test: Antiviral activity against HIV1 harboring reverse transcriptase K103N mutant infected in human MT4 cells assessed as reduction in virus-induced cytopathic effect incubated for 5 days by MTT assay; assay type: functional, organism-based; conditions: Human immunodeficiency virus 1, MT4, 120 h
[5] = tested on: Human immunodeficiency virus 1; test: Antiviral activity against HIV1 harboring reverse transcriptase Y181C mutant infected in human MT4 cells assessed as reduction in virus-induced cytopathic effect incubated for 5 days by MTT assay; assay type: functional, organism-based; conditions: Human immunodeficiency virus 1, MT4, 120 h
[6] = tested on: Human immunodeficiency virus 1; test: Antiviral activity against HIV1 harboring reverse transcriptase Y188L mutant infected in human MT4 cells assessed as reduction in virus-induced cytopathic effect incubated for 5 days by MTT assay; assay type: functional, organism-based; conditions: Human immunodeficiency virus 1, MT4, 120 h
[7] = tested on: Human immunodeficiency virus 1; test: Antiviral activity against HIV1 harboring reverse transcriptase E138K mutant infected in human MT4 cells assessed as reduction in virus-induced cytopathic effect incubated for 5 days by MTT assay; assay type: functional, organism-based; conditions: Human immunodeficiency virus 1, MT4, 120 h
[8] = target: Human immunodeficiency virus type 1 reverse transcriptase (Human immunodeficiency virus 1, UniProt Q72547); test: Inhibition of recombinant wild type HIV1 reverse transcriptase p66/p51 incubated for 40 mins by picogreen dye-based spectrofluorometric analysis
[9] = target: Human immunodeficiency virus type 1 reverse transcriptase (Human immunodeficiency virus 1) (UniProt Q72547); test: Ratio of IC50 for nevirapine to IC50 for test compound for recombinant wild type HIV1 reverse transcriptase p66/p51
[10] = Aqueous solubility of compound at 2 mg measured for 24 hrs by HPLC analysis; assay type: physicochemical; conditions: aqueous medium
[11] = Metabolic stability in human liver microsomes at 1 uM measured up to 45 mins in presence of NADPH by LC/MS/MS analysis; assay type: ADME, Microsome
[12] = Metabolic stability in rat liver microsomes at 1 uM measured up to 45 mins in presence of NADPH by LC/MS/MS analysis; assay type: ADME, Microsome; conditions: liver microsomes
[13] = Intrinsic clearance in human liver microsomes assessed per mg protein at 1 uM measured up to 45 mins in presence of NADPH by LC/MS/MS analysis; assay type: ADME, Microsome; conditions: read-out: CLH
[14] = Intrinsic clearance in rat liver microsomes assessed per mg protein at 1 uM measured up to 45 mins in presence of NADPH by LC/MS/MS analysis; assay type: ADME, Microsome; conditions: liver microsomes, read-out: CLH

Compound	EC50 [1] [nM]	CC50 (MT4) [nM]	selectivity ratio at 120 h [2]	EC50 [3] [nM]	EC50 [4] [nM]	EC50 [5] [nM]	EC50 [7] [nM]	also measured
COc1cc(-c2ccc(C#N)cc2)ccc1Oc1ccnc(Nc2ccc(C#N)cc2)n1	1.6	> 298000	> 192000	11.9	4.5	16.7	2	EC50 [6]: > 298000 nM; IC50 [8]: 9.3 nM; Ratio IC50 [9]: 21 to 109
N#Cc1ccc(Nc2nccc(Oc3ccc(-c4ccc(C#N)cc4)cc3Cl)n2)cc1	1.7	> 295000	> 179000	11.3	< 3.8	13.7	< 3.8	EC50 [6]: 330 nM; IC50 [8]: 8.3 nM; Ratio IC50 [9]: 21 to 109
N#Cc1ccc(Nc2nccc(Nc3ccc(-c4ccc(C#N)cc4)c(F)c3)n2)cc1	14.5	> 271000	> 18600	–	–	–	–	–
Cc1ccnc2c1NC(=O)c1cccnc1N2C1CC1 [NEVIRAPINE]	–	> 15000	–	2100	> 10100	> 15900	–	–
Cc1cc(-c2ccc(Oc3ccnc(Nc4ccc(C#N)cc4)n3)c(F)c2)ccc1C#N	49.9	> 297000	> 6020	–	–	–	–	–
CS(=O)(=O)O.N#Cc1ccc(Nc2nccc(Nc3c(F)cc(-c4ccc(C#N)cc4)cc3F)n2)cc1	–	–	–	–	–	–	–	solubility at 24 h [10]: 0.88 µg/mL
Cc1cc(-c2ccc(C#N)cc2)ccc1Oc1ccnc(Nc2ccc(C#N)cc2)n1	2.5	> 310000	> 122000	47.1	8.7	18.4	6.2	EC50 [6]: 14400 nM; IC50 [8]: 5.5 nM; Ratio IC50 [9]: 21 to 109
N#Cc1ccc(Nc2nccc(Nc3c(F)cc(-c4ccc(C#N)cc4)cc3F)n2)cc1 [listing 1 of 2 here]	1.3	> 295000	> 238000	10.8	2.6	6.1	1.9	EC50 [6]: 130 nM; IC50 [8]: 4.7 nM; solubility at 24 h [10]: < 1 µg/mL
O=C1Nc2ccc(Cl)cc2[C@@](C#CC2CC2)(C(F)(F)F)O1 [EFAVIRENZ]	7.4	> 6340	–	44	102	7.3	6.3	EC50 [6]: 290 nM
Cc1cc(-c2ccc(C#N)cc2)cc(C)c1Nc1ccnc(Nc2ccc(C#N)cc2)n1	–	–	–	–	–	–	–	solubility at 24 h [10]: < 1 µg/mL; k el at 0.75 h, 1 µM [11]: 0.00079 s⁻¹; half-life at 1 µM [12]: 15.4 min; k el at 0.75 h, 1 µM [12]: 0.00075 s⁻¹; microsomal CLint at 1 µM [13]: 47.4 µL/min/mg; microsomal CLint at 1 µM [14]: 45 µL/min/mg
N#Cc1ccc(Nc2nccc(Oc3ccc(-c4ccc(C#N)cc4Cl)cc3Cl)n2)cc1	4990	> 273000	> 55	–	–	–	–	–
N#Cc1ccc(Nc2nccc(Nc3c(F)cc(-c4ccc(C#N)cc4)cc3F)n2)cc1 [listing 2 of 2 here]	–	–	–	–	–	–	–	Ratio IC50 [9]: 21 to 109
N#Cc1ccc(Nc2nccc(Oc3ccc(-c4ccc(C#N)cc4)c(Cl)c3)n2)cc1	9.9	31100	3130	–	–	–	–	–
CC(=O)O.N#Cc1ccc(Nc2nccc(Nc3c(F)cc(-c4ccc(C#N)cc4)cc3F)n2)cc1	–	–	–	–	–	–	–	solubility at 24 h [10]: 0.34 µg/mL
Cc1cc(-c2ccc(C#N)cc2)c(Cl)cc1Oc1ccnc(Nc2ccc(C#N)cc2)n1	4.6	> 286000	> 63300	8.5	3.7	32	11.9	EC50 [6]: > 286000 nM; IC50 [8]: 18.8 nM; Ratio IC50 [9]: 21 to 109
N#Cc1ccc(Nc2nccc(Nc3c(F)cc(-c4ccc(C#N)cc4)cc3F)n2)cc1.O=S(=O)(O)O	–	–	–	–	–	–	–	solubility at 24 h [10]: 0.36 µg/mL
N#Cc1ccc(Nc2nccc(Nc3c(F)cc(-c4ccc(C#N)cc4)cc3F)n2)cc1.O=S(=O)(O)c1ccccc1	–	–	–	–	–	–	–	solubility at 24 h [10]: 0.39 µg/mL
Cc1cc(-c2ccc(C#N)cc2F)ccc1Oc1ccnc(Nc2ccc(C#N)cc2)n1	10.7	> 297000	> 27500	13.2	4.7	14.6	4.9	EC50 [6]: > 294000 nM; IC50 [8]: 8.7 nM; Ratio IC50 [9]: 21 to 109
Cc1cc(Oc2ccnc(Nc3ccc(C#N)cc3)n2)ccc1-c1ccc(C#N)cc1	719	29400	41	–	–	–	–	–
N#Cc1ccc(Nc2nccc(Nc3c(F)cc(-c4ccc(C#N)cc4)cc3F)n2)cc1.O=CO	–	–	–	–	–	–	–	solubility at 24 h [10]: 0.35 µg/mL

Compound	EC50 [1] [nM]	CC50 (MT4) [nM]	selectivity ratio at 120 h [2]	EC50 [3] [nM]	EC50 [4] [nM]	EC50 [5] [nM]	EC50 [7] [nM]	also measured
N#Cc1ccc(Nc2nccc(Oc3c(F)cc(-c4ccc(C#N)cc4)cc3F)n2)cc1	3.3	> 294000	> 89300	17.2	3.5	23.5	5.2	EC50 [6]: > 294000 nM; IC50 [8]: 13.2 nM; Ratio IC50 [9]: 21 to 109
N#Cc1ccc(Nc2nccc(Oc3ccc(-c4ccc(C#N)c(Cl)c4)cc3Cl)n2)cc1	63.5	14900	232	–	–	–	–	–
N#Cc1ccc(Nc2nccc(Nc3ccc(-c4ccc(C#N)cc4)cc3F)n2)cc1	11.3	308000	> 27300	–	–	–	–	–
N#Cc1ccc(Nc2nccc(Oc3ccc(-c4ccc(C#N)cc4)c(F)c3)n2)cc1	3.2	> 307000	> 98000	–	–	–	–	–
N#Cc1ccc(Nc2nccc(Nc3c(F)cc(-c4ccc(C#N)cc4)cc3F)n2)cc1.O=C(O)C(F)(F)F	–	–	–	–	–	–	–	solubility at 24 h [10]: 0.35 µg/mL
COc1cc(Nc2ccnc(Nc3ccc(C#N)cc3)n2)ccc1-c1ccc(C#N)cc1	17.5	5260	304	–	–	–	–	–
N#Cc1ccc(Nc2nccc(Oc3ccc(-c4ccc(C#N)cc4)cc3C(F)(F)F)n2)cc1	6.8	> 273000	> 40600	–	–	–	–	–
N#Cc1ccc(Nc2nccc(Oc3ccc(-c4ccc(C#N)cc4)cc3F)n2)cc1	1.8	> 307000	> 172000	63.9	12.3	49.1	6.4	EC50 [6]: > 307000 nM; IC50 [8]: < 3.7 nM; Ratio IC50 [9]: 21 to 109
Cc1cc(Nc2ccnc(Nc3ccc(C#N)cc3)n2)ccc1-c1ccc(C#N)cc1	13.9	12400	894	–	–	–	–	–
Cc1cc(C#N)cc(C)c1Oc1nc(Nc2ccc(C#N)cc2)nc(N)c1Br [ETRAVIRINE]	6.3	> 4610	–	7.1	–	12	6.5	solubility at 24 h [10]: < 1 µg/mL
COc1cc(Oc2ccnc(Nc3ccc(C#N)cc3)n2)ccc1-c1ccc(C#N)cc1	3.1	> 298000	> 100000	–	–	–	–	–
Cc1cc(-c2ccc(C#N)c(F)c2)ccc1Oc1ccnc(Nc2ccc(C#N)cc2)n1	17.1	> 297000	> 17400	–	–	–	–	–
Cc1cc(C#N)ccc1-c1ccc(Oc2ccnc(Nc3ccc(C#N)cc3)n2)c(F)c1	66.5	> 297000	> 4460	–	–	–	–	–
COc1cc(-c2ccc(C#N)cc2)ccc1Nc1ccnc(Nc2ccc(C#N)cc2)n1	2.9	> 299000	> 106000	122	18.4	158	7.4	EC50 [6]: > 299000 nM; IC50 [8]: 6 nM; Ratio IC50 [9]: 21 to 109
N#Cc1ccc(Nc2nccc(Oc3ccc(-c4ccc(C#N)c(F)c4)cc3F)n2)cc1	120	> 294000	> 2430	–	–	–	–	–
N#Cc1ccc(Nc2nccc(Oc3ccc(-c4ccc(C#N)cc4F)cc3F)n2)cc1	3.1	> 294000	> 98000	–	–	–	–	–
Cc1cc(-c2ccc(C#N)cc2)ccc1Nc1ccnc(Nc2ccc(C#N)cc2)n1	2.1	9200	4480	16.7	3	9	3	EC50 [6]: 240 nM; IC50 [8]: < 6.2 nM; Ratio IC50 [9]: 21 to 109
N#Cc1ccc(Nc2nccc(Oc3ccc(-c4ccc(C#N)cc4)c(C(F)(F)F)c3)n2)cc1	18.2	> 273000	> 15000	–	–	–	–	–
N#Cc1ccc(Nc2nccc(Oc3ccc(-c4ccc(C#N)cc4)c(F)c3F)n2)cc1	15.3	> 294000	> 19200	–	–	–	–	–

Source: ChEMBL document CHEMBL4354822, “Ligand-Based Design of Nondimethylphenyl-Diarylpyrimidines with Improved Metabolic Stability, Safety, and Oral Pharmacokinetic Profiles” (J Med Chem, 2019)
